# Values of other authors in patent US6348583B1, “Poly(ether-thioether), poly(ether-sulfoxide) and poly(ether-sulfone) nucleic acids” (Bio-Rad Laboratories, Inc., priority 1999, dated 2002).
# Read-outs that look alike come from different tables or passages of the source.
# Tests used:
# [1] = aqueous buffers
# dA10 = details: duplex with dA10
substance,measurement,setting,value
"d(ApG)8: methylphosphonate oligonucleotide analog, SEQ ID NO:22 (DNA GAGAGAGAGAGAGAGA; methylphosphonate backbone, further chemistry not given here)",solubility,[1],less than 0.1 mM
"d(CpT)8: methylphosphonate oligonucleotide analog, SEQ ID NO:21 (DNA CTCTCTCTCTCTCTCT; methylphosphonate backbone, further chemistry not given here)",solubility,[1]; result in words,soluble up to millimolar concentrations
"dT10: native DNA dT10, duplex with dA10 (SEQ ID NO:18) (TTTTTTTTTT)",Tm value,dA10,about 24 °C
